Data reported in patent publication US7273712B2, “Methods and compositions for detecting compounds that modulate inflammatory responses” (Reddy US Therapeutics, Inc., priority 2000, dated 2007).

What was measured:
[1] = system: MCP-1 secretion by endothelial cells (HAEC and HMVEC); test: AGE-induced inflammatory response determined by MCP-1 ELISA; type: cell-based, human; settings: 100 ng/ml TNFα or 300 μg/ml G-HSA, 24 hrs, vs control medium (FIG. 2)
Protocol: HAEC and HMVEC (Clonetics) were cultured and subcultured according to manufacturer in growth medium (Clonetics): basal medium containing hEGF, hydrocortisone, VEGF, HFGF-B (with heparin), long R3-IGF-1, ascorbic acid, gentamicin/amphotericin and 5% FBS. These cells were allowed to reach >90% confluency before being subjected to experimental treatments.
Cells were treated with control medium or medium containing 100 ng/ml TNFα or 300 μg/ml G-HSA for 24 hrs. All treatments and controls were carried out in serum free media containing 0.2% albumin. Following treatment, media were collected and used for the MCP-1 ELISA.
MCP-1 ELISA was carried out using a DuoSet ELISA Development System for Human MCP-1 as described by the manufacturer (R&D Systems). 2 ug/ml of mouse anti-human MCP-1 was used as the capture antibody and 100 ng/ml biotinylated goat anti-human MCP-1 was used as the detection antibody. The culture media were incubated with capture antibody for 2 h at room temperature in 96-well plates. The wells were washed three times with wash buffer (0.05% Tween-20 in phosphate buffered saline (PBS) pH 7.4) followed by incubation with detection antibody for 2 h at room temperature. Color development was read at 450 nm in a microplate reader.

[2] = system: IL-6 secretion by endothelial cells (HMVEC); test: AGE-induced inflammatory response determined by IL-6 ELISA; type: cell-based, human; settings: 24 hrs
Protocol: These cell were allowed to reach >90% confluency before being subjected to experimental treatments. G-HSA was from US Biologicals. Tumor necrosis factor α (TNFα) was from R&D Systems.
HMVEC were treated with control medium or medium containing 100 ng/ml TNFα or 300 μg/ml G-HSA for 24 hrs. All treatments and controls were carried out in serum free media containing 0.2% albumin. Following treatment, cell media were collected and used for an IL-6 ELISA.
The IL-6 ELISA was carried out using human IL-6 DuoSet ELISA development kit as described by manufacturer (R&D Systems). Mouse anti-human IL-6 was used as the capture antibody (2 μg/ml) and biotinylated goat anti-human IL6 (200 ng/ml) was used as the detection antibody. The culture media were incubated with capture antibody for 2 h at room temperature in 96-well plates. The wells were washed three times with wash buffer (0.05% Tween-20 in phosphate buffered saline (PBS) pH 7.4) followed by incubation with detection antibody for 2 h at room temperature. Following three washes, the wells were incubated with Streptavidin-HRP for 20 min. Color development was read at 450 nm in a microplate reader.

Tumor necrosis factor α [TNFα]
increase in MCP-1 secretion [1]: 540% | increase in IL-6 secretion ([2]; 100 ng/ml TNFα or 300 μg/ml G-HSA, HMVEC, vs control medium (FIG. 1)): 147% | increase in IL-6 secretion by endothelial cells ([2]; 100 ng/ml TNFα, serum free media containing 0.2% albumin, vs control medium): greater than 2 fold
